Consider 6 compounds from patent publication US11162073B2, “Methods for generating functional hematopoietic stem cells” (The Brigham and Women's Hospital, Inc., priority 2015, dated 2021).

“Also recorded” adds a separate entry of the source.

Assay [1] deals with E11.5 AGM cells. The assay can be described thus: E11.5 AGM explant culture with drugs followed by colony formation (CFU) assay. The settings on record: for multipotent GEMM colony formation: E11.5 AGM, 24-48 hr incubation, CFU assay. In kind it is cell-based, mouse. An excerpt:
We first coated each well of the 6-well FlexCell plate using Fibronectin/Matrigel and allowed it to settle on the nylon membrane of each well. Then we seeded two embryo equivalent (e.e.) single-cell suspension of AGM (composed of endothelial, hemogenic endothelial, hematopoietic, vascular smooth muscle (VSMCs), and mesenchymal stromal cells)-derived cells in each FlexCell well, with a coating of Fibronectin/Matrigel allows AGM-derived (sorted or not sorted) cells to adhere to the bottom of the well. We filled each well with an explant culture medium containing Myelocult and growth factors (27, 28). We put these 6-well plates into the FlexCell machine and applied cyclic strain (4-12%) for 6-48 hours using customized pins hooked to the bottom of each well. We inserted the customized rubber gasket in several wells to simulate static control conditions as well. Next we added drugs modulating the stretch-activated ion channel signaling in a few wells undergoing the external cyclic strain. After 6-48 hours of external stimulation of circumferential stretch, we harvested AGM-derived cells from the FlexCell plate and analyzed their capacity to make hematopoietic cells: (I) We performed CFU assays using Methocult media to count multi-potential granulocyte, erythroid, macrophage, megakaryocyte progenitors (GEMM), granulocyte-macrophage progenitors (CFU-GM, CFU-M, CFU-G), and erythroid progenitor (BFU-E) colonies after seven days of seeding AGM derived sorted cells. (II) We analyzed the expression levels of Runx1, c-Myb, Lmo2, Gata2, CD144, and Gata1. (III) We also stained AGM-derived cells with fluorescently labeled conjugated antibodies to measure the expression levels of Flk1, CD144, CD41, c-Kit, & CD45.2. (IV) We injected two e.e. AGM (donor; CD45.2)-derived cells in sub-lethally irradiated CD45.1 (SJL; recipient) mice. We analyzed long-term engraftment and multi-lineage reconstitution potential of donor cells for 16 weeks followed by serial-transplantation to differentiate between HSCs and hemogenic endothelial cells. (V) We also performed limiting dilution assays to analyze the number of HSCs generated per AGM-derived cell following 2D circumferential stretch.
Using a customized bioreactor based on organ-on-a-chip (FIG. 4), we applied 2D circumferential stretch (6% cyclic strain, 24 hr) to a single cell suspension of two e.e. E11.5 AGM cells. In parallel, we also incubated two e.e. E11.5 AGM static cells with Trpv4 agonist (GSK101 (29)).
(§1) In mice, the first heartbeat occurs at E8.25, and HSCs begin to emerge from AGM-derived hemogenic endothelium between E10.5-E12.5 (10, 11). To investigate whether circumferential stretch-activated ion channels are also involved in mammalian HSC emergence, we incubated E11.5 AGM with non-specific SAC channels inhibitor (GdCl3) and pan-Trpv channel inhibitor (Ruthenium Red) in explant culture media and analyzed their hematopoietic CFU capacity, and the expression of endothelial and hematopoietic genes (CD41, CD45.2, c-Kit, Flk1, CD144).
To further investigate the influence of Trpv4 on HSC formation from hemogenic endothelial cells, we incubated E11.5 AGM (28) with Trpv4 agonist (GSK101, 4α-PDD (44)) and Trpv4 antagonist (GSK 205) for 24-48 hr (FIG. 9).

Assay [2] concerns zebrafish embryos. The assay can be described thus: zebrafish embryos incubated with stretch-activated ion channel modulators, qRT-PCR and WISH for HSPC surrogate markers. It is filed as in vivo. As to conditions: control zebrafish embryos, incubation between 19-42 hpf. The source says: An impact of circumferential stretch is communicated by member(s) of the […] superfamily, Trp-superfamily, ENaC/DEG superfamily, and/or Piezo family (36-39). […] However, the direct role of Trpv4 in HSC emergence has not been established. We therefore treated zebrafish embryos with a pan-inhibitor of Trpv channels (Ruthenium RED; (41)), Trpv4 antagonist (GSK 205; (42)), and Trpv4 agonist (GSK101; (29)) between 19-42 hpf, followed by qRT-PCR and WISH for HSPC surrogate markers (c-myb and runx1).

Assay [3] relates to E11.5 AGM. In words: E11.5 AGM explant culture, expression of endothelial and hematopoietic genes. As to conditions: data not shown. In kind it is cell-based, mouse. As for the experimental part: as §1
The test system of assay [4] is sih-silenced embryos. The assay can be described thus: silent heart (sih)-silenced zebrafish embryos incubated with trpv4 agonist, HSPC formation. It is filed as in vivo. The procedure: Silent heart cardiac troponin (sih, tnnt2)-mutant embryos lack heartbeat and blood circulation (43). […] Because heartbeat-mediated pulse pressure on blood vessels stimulates HSC emergence, we studied whether the activation of the Trpv4 ion channels triggers HSC formation in the absence of a heartbeat and blood circulation. We therefore incubated sih-silenced embryos (casper or cd41:eGFP::flk1:mCherry) with trpv4 agonist (GSK101) between 19-42 hpf.

Assay [5] has as its system human umbilical vein endothelial cells (HUVEC). The assay can be described thus: incubation of HUVEC with Trpv4 agonist, intracellular calcium levels. It is filed as cell-based. In general terms: A change in cytosolic calcium serves as a functional read-out for many receptors and channels.
The test system of assay [6] is E11.5 AGM cells. The assay can be described thus: transplant of treated E11.5 AGM cells into irradiated recipient mice, engraftment and multi-lineage reconstitution. It is filed as in vivo, mouse. As to conditions: 2 e.e. AGM per recipient. The source says:
We first coated each well of the 6-well FlexCell plate using Fibronectin/Matrigel and allowed it to settle on the nylon membrane of each well. Then we seeded two embryo equivalent (e.e.) single-cell suspension of AGM (composed of endothelial, hemogenic endothelial, hematopoietic, vascular smooth muscle (VSMCs), and mesenchymal stromal cells)-derived cells in each FlexCell well, with a coating of Fibronectin/Matrigel allows AGM-derived (sorted or not sorted) cells to adhere to the bottom of the well. We filled each well with an explant culture medium containing Myelocult and growth factors (27, 28). […] After 6-48 hours of external stimulation of circumferential stretch, we harvested AGM-derived cells from the FlexCell plate and analyzed their capacity to make hematopoietic cells: (I) We performed CFU assays using Methocult media to count multi-potential granulocyte, erythroid, macrophage, megakaryocyte progenitors (GEMM), granulocyte-macrophage progenitors (CFU-GM, CFU-M, CFU-G), and erythroid progenitor (BFU-E) colonies after seven days of seeding AGM derived sorted cells. (II) We analyzed the expression levels of Runx1, c-Myb, Lmo2, Gata2, CD144, and Gata1. […] We analyzed long-term engraftment and multi-lineage reconstitution potential of donor cells for 16 weeks followed by serial-transplantation to differentiate between HSCs and hemogenic endothelial cells. […]

In assay [7] the test system is cdh5-silenced embryos. The assay can be described thus: cdh5-silenced zebrafish embryos incubated with NOS inhibitor, HSC formation. As to conditions: incubation between 19-48 hpf. It is filed as in vivo. The source says: In zebrafish the heart begins to beat around 23 hpf, the blood circulation begins at approximately 24-26 hpf, and definitive HSCs emerge from hemogenic endothelial cells in the AGM region between 26-48 hpf (11). Blood flow generates shear-stress on the ventral wall of the aortic endothelium and stimulates the endothelial-to-HSC transition by activating the NOS pathway (12, 13). When we performed time-lapse confocal imaging of both the control and the cdh5-silenced cd41:eGFP:flk1:mCherry embryos between 30-48 hpf, we found cdh5-silenced cd41:eGFP^low HSCs emerging from flk1:mCherry^+ endothelial cells despite early circulation arrest (FIG. 1A-B). In addition, we incubated cdh5-silenced embryos in the presence of L-NAME, a pharmacological inhibitor of NOS (12), between 19-48 hpf. […] Thus, HSCs would emerge from hemogenic endothelial cells, despite impaired circulation and NOS inhibition. These striking data led us to investigate shear stress-independent biomechanical and molecular mechanisms responsible for the endothelial transition to HSCs.

For `CCCCCCOC(=O)[C@]1(O)C[C@@H]2O[C@@]1(C)n1c3ccccc3c3c4c(c5c6ccccc6n2c5c31)C(=O)NC4` [KT5720], the “Trpv4 agonist-mediated increase in multipotent GEMM formation” value in assay [1] (E11.5 AGM explant culture, together with Trpv4 agonist GSK101, 24 hr) is on record as “attenuated; also recorded: attenuates stimulating impact of Trpv4 agonist”.

Turning to `CCCCCCCCCC(=O)O[C@@H]1[C@@H](C)[C@@]2(O)[C@@H](C=C(CO)C[C@@]3(O)C(=O)C(C)=C[C@@H]23)[C@@H]2C(C)(C)[C@]12OC(=O)CCCCCCCCC` [4α-PDD, 4alpha-phorbol 12,13-didecanoate], the “multipotent GEMM colony formation” value in assay [1] is “stimulates multipotent progenitor (GEMM) formation; also recorded: stimulated multipotent GEMM formation”.

For `[Cl][Gd]([Cl])[Cl]` [GdCl3, Gadolinium Chloride], the “expression of HSPC surrogate markers runx1 and c-myb” value in assay [2] is on record as “reduced”. The “expression of hematopoietic genes” value in assay [3] is recorded as “reduced”. The “multipotent GEMM colony formation” value in assay [1] (listed as GdC13) is on record as “attenuates GEMM formation; also recorded: reduced”.

On to `CC(C)C[C@H](NC(=O)c1cc2ccccc2s1)C(=O)N1CCN(C(=O)[C@H](CO)NS(=O)(=O)c2ccc(Cl)cc2Cl)CC1` [GSK101], for which, in assay [4] (sih-silenced cd41-eGFP:flk1-mCherry embryos), the “formation of cd41:eGFP+ HSCs” value was “rescues the formation of cd41:eGFP^+ HSCs”. Moreover, the “HSPC formation (mRNA expression levels of runx1 and c-myb)” value in assay [4] (sih-silenced embryos, 19-42 hpf, WISH and qRT-PCR) is “rescues hematopoietic stem progenitor cell (HSPC) formation”. For the same compound, the “expression of HSPC surrogate markers runx1 and c-myb” value in assay [2] is on record as “enhances HSPC formation; also recorded: increased the expression of HSPC markers”. Also, in assay [5], the “[Ca+2]i levels” value is “increase in [Ca^+2]i levels”. In assay [6] (after 8 weeks), the “percentage of engraftment (CD45.2+ peripheral blood chimerism)” value was “Increase; also recorded: increased the percentage of engraftment”. In assay [6] (peripheral blood after 8 weeks), the multi-lineage reconstitution result is on record as “increased”. Further, the “multipotent GEMM colony formation” value in assay [1] is reported as “Increase in GEMM; also recorded: stimulates multipotent progenitor (GEMM) formation; also recorded: enhanced GEMM formation; also recorded: stimulated multipotent GEMM formation”.

`N.N.N.N.N.N.N.N.N.N.N.N.N.N.[Cl-].[Cl-].[Cl-].[Cl-].[Cl-].[Cl-].[O-2].[O-2].[Ru+3].[Ru+3].[Ru+4]` [Ruthenium Red]: the “expression of HSPC surrogate markers runx1 and c-myb” value in assay [2] was “reduction in runx1 and c-myb expression”. Moreover, the “expression of hematopoietic genes” value in assay [3] was “reduced”. For the same compound, in assay [1], the “multipotent GEMM colony formation” value was “attenuates GEMM formation; also recorded: reduced”.

On to `COC(=O)[C@@H](N)CCCNC(=N)N[N+](=O)[O-]` [L-NAME], for which the “HSC formation (zf-runx1 and zf-c-Myb expression)” value in assay [7] was “did not abolish HSC formation”.
